According to ChEMBL document CHEMBL1201862, “PubChem BioAssay data set” (2004):
The source made the active and inactive calls.

Tests used:
[1] = molecular target: SUMO-activating enzyme (Homo sapiens, UniProt Q9UBT2); experiment: blockers of UBC9-mediated SUMO conjugation – biochemical, AlphaScreen, SUMOylation inhibitor project, confirmation (AID 2018); format: functional
[2] = molecular target: T1, Sentrin-specific protease 7 (Homo sapiens, UniProt Q9BQF6); format: functional;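 further: Luminescence-based dose-response confirmation of ultra-high-throughput screening hits, measuring inhibition of SENP7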
T1 sequence (Q9BQF6 whole entry): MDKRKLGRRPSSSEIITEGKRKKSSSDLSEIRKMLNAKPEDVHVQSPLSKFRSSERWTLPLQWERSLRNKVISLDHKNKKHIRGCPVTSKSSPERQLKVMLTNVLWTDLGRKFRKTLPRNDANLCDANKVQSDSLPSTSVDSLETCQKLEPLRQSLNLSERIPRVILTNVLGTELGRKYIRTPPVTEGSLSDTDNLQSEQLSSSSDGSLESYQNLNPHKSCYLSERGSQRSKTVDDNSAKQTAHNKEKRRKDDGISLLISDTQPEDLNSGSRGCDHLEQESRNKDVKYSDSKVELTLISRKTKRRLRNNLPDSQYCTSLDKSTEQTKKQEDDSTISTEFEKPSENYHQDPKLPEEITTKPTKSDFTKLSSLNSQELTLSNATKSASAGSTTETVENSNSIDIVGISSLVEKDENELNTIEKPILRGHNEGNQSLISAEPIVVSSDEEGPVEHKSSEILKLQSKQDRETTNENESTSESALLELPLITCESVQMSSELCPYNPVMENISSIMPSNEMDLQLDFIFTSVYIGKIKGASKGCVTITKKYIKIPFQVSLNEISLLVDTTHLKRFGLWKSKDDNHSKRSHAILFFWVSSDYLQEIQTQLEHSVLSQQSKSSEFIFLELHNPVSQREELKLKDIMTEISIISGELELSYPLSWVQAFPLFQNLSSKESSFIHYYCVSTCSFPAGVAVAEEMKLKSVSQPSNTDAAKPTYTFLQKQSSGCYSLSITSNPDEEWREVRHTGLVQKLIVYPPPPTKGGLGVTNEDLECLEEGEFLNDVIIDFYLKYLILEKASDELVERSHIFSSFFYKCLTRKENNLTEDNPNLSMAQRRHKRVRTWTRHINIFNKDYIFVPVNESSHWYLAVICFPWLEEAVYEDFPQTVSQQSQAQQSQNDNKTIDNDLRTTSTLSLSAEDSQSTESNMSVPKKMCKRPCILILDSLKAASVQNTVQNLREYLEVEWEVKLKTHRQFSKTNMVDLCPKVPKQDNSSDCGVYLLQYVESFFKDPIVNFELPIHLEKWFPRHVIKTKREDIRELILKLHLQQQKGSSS

[3] = molecular target: T2, Mannose-6-phosphate isomerase (Homo sapiens, UniProt P34949); experiment: MPI inhibition at elevated mannose 6-phosphate – biochemical, fluorescence intensity, high mannose 6-phosphate, primary screen (AID 1220)
T2 sequence (P34949 whole entry): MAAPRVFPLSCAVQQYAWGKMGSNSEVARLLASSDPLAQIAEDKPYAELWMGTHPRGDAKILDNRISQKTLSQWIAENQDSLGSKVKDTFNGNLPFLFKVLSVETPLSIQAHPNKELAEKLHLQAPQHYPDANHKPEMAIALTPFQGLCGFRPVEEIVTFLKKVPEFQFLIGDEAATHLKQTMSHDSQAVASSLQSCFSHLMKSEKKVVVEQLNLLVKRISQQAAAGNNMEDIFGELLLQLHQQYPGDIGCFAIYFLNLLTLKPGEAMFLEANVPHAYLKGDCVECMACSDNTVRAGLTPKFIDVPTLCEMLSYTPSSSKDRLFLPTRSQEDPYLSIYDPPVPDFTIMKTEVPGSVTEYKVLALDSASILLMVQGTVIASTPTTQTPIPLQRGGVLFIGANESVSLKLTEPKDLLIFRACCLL

[4] = molecular target: T3, Microphthalmia-associated transcription factor (Homo sapiens, UniProt O75030); experiment: reducers of TRPM1 reporter luminescence, concentration series – cell-based, SK-MEL-5, cherry-picked, set 3, MITF inhibitor project, dose response (AID 493073); format: functional;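 further: SK-MEL-5 melanoma cells with luciferase driven by the MITF target TRPM1 promoter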
T3 sequence (O75030 whole entry): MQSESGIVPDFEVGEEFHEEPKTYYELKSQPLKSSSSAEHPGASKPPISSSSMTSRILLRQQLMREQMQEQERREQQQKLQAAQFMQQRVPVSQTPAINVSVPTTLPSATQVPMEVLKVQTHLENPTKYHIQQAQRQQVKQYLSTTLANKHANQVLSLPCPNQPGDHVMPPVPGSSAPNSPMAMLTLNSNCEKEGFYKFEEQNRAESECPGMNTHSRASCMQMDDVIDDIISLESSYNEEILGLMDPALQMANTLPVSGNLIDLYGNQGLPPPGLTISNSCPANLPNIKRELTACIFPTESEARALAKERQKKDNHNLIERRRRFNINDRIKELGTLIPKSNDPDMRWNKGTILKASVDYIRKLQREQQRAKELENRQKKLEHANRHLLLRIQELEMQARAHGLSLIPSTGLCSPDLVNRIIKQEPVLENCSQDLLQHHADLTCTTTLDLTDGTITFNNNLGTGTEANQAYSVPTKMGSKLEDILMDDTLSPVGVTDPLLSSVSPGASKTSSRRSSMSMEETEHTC

[5] = molecular target: Glucose-6-phosphate 1-dehydrogenase (Homo sapiens, UniProt P11413); experiment: inhibition of Homo sapiens G6PD, dose series – biochemical, fluorescence, selectivity assay for P. falciparum G6PD inhibitor project, dose response (AID 504792); format: functional
[6] = tested on: CHO; experiment: CHO cell viability loss, potency – luminescence, cytotoxicity control for TLR9-MyD88 binding inhibitor project, dose response (AID 588339); format: functional, cell-based, hamster; conditions: Cricetulus griseus;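 further: CHO cells stably coexpressing TLR9 and MyD88 fusions from primary screen; compound exposure lasted 48 hours before viability readout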
[7] = non-specific 3'UTR reporter inhibition in Clone20-Shn3RL – cell-based, Renilla luciferase, cherry-picked, counter-screen for Shn3 inhibitor project, dose response (AID 624133); format: functional
[8] = CellTiter-Glo luminescence survival assay, SW480 colon tumor line, concentration-response curve, half-maximal inhibitory concentration (AID 1117338); format: functional
[9] = molecular target: Heat shock cognate 71 kDa protein (Homo sapiens, UniProt P11142); experiment: small molecules displacing fluorescent ligand from Hsc70 – biochemical, fluorescence polarization, primary screen (AID 568)
[10] = cytotoxicity toward HCT116 cells – cell-based, CellTiter-Glo luminescence, IC50, dose response (AID 1117332); format: functional; conditions: HCT-116
[11] = SNU-C1 cell viability reduction, dose response, CellTiter-Glo luminescence (AID 1117323); format: functional, cell-based
[12] = RKO cell viability reduction, dose response, CellTiter-Glo luminescence (AID 1117322); format: functional
[13] = molecular target: Eukaryotic translation initiation factor 4E (Mus musculus, UniProt P63073); experiment: blockers of eIF4G binding by eIF4E – biochemical, TR-FRET, dose response (AID 855); format: functional;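 further: potency for disrupting eIF4E binding to eIF4GI seen as loss of FRET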
[14] = molecular target: Small ubiquitin-related modifier 2 (Homo sapiens, UniProt P61956); experiment: SUMO2 binding disruption by SUMO1 hits – biochemical, FRET, human SUMO2, uHTS hits, selectivity assay for SUMO1 interaction inhibitor project, dose response (AID 624384); format: functional; conditions: read-out: IC50_Mean
[15] = molecular target: Small ubiquitin-related modifier 1 (Homo sapiens, UniProt P63165); experiment: SUMO1 protein interaction blockers, potency – biochemical, fluorescence polarization, uHTS hits, dose response (AID 624382); format: functional; conditions: read-out: IC50_Mean
Small ubiquitin-related modifier 1, sequence (P63165 whole entry): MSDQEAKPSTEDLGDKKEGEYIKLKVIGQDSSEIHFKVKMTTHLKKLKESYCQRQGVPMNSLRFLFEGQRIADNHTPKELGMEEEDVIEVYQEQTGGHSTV

Heat shock cognate 71 kDa protein, sequence (P11142 whole entry): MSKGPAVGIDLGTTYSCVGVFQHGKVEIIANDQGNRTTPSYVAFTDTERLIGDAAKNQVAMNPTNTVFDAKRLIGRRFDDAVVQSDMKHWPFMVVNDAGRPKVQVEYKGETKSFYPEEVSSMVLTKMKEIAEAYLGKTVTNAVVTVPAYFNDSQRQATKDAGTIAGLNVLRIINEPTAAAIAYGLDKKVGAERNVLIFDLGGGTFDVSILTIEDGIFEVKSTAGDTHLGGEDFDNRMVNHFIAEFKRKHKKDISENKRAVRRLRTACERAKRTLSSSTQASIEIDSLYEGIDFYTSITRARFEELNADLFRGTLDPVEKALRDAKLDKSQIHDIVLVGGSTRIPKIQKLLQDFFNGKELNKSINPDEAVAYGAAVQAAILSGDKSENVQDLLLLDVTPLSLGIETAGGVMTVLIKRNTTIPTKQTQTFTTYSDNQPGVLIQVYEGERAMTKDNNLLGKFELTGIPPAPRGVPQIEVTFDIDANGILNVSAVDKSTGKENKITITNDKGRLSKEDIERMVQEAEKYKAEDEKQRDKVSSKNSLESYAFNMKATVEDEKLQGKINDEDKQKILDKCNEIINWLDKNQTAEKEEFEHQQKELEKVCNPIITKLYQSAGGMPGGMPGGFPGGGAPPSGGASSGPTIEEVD
SUMO-activating enzyme, sequence (Q9UBE0 whole entry): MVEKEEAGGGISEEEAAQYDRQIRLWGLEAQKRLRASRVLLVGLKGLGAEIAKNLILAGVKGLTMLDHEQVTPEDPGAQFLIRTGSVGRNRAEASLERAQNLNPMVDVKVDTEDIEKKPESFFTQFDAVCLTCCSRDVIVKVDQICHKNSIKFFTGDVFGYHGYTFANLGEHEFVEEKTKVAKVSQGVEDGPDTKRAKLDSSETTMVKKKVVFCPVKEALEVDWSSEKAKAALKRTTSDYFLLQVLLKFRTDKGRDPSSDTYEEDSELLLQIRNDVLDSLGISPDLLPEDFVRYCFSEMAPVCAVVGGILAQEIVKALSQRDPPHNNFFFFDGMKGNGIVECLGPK
SUMO-activating enzyme, sequence (Q9UBT2 whole entry): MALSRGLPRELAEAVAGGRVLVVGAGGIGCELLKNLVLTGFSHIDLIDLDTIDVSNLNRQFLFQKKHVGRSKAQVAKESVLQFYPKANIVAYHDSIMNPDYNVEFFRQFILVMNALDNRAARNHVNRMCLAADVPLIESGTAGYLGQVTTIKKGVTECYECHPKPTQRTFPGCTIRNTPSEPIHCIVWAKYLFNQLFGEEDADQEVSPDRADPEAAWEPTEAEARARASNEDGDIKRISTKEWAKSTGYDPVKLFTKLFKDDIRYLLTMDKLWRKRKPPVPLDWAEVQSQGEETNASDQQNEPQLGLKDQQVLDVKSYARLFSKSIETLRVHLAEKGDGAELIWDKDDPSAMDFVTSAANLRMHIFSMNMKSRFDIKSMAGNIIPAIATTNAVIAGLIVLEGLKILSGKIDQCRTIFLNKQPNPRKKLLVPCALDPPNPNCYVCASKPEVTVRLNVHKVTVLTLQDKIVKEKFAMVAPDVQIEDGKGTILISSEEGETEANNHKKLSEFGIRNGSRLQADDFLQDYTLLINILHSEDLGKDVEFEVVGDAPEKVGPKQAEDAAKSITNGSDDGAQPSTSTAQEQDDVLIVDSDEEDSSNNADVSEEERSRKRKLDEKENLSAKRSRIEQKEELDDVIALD
Eukaryotic translation initiation factor 4E, sequence (P63073 whole entry): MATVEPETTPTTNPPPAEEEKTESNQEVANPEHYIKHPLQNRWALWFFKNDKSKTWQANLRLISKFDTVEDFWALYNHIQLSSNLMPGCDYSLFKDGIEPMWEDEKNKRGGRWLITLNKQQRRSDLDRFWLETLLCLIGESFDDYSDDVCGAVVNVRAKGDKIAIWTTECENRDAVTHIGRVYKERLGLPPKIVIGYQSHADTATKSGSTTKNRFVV
Glucose-6-phosphate 1-dehydrogenase, sequence (P11413 whole entry, the tested form may be a part): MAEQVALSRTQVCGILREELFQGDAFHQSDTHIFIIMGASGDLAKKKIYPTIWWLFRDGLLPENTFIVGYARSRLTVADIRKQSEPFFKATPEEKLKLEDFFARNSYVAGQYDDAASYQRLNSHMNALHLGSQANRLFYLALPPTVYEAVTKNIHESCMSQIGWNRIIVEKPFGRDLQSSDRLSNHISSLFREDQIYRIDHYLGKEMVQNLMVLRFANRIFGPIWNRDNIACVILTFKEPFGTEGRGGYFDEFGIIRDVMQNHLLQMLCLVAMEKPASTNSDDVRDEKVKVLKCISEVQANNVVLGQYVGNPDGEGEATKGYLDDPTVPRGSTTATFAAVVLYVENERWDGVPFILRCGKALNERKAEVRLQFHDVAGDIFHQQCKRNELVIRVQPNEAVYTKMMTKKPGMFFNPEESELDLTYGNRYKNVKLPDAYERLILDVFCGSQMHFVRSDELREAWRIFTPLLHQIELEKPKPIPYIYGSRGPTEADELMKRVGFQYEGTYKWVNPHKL
Small ubiquitin-related modifier 2, sequence (P61956 whole entry): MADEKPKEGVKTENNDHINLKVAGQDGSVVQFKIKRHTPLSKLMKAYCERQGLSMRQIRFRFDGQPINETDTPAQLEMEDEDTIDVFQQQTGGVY

With `N#Cc1c(N2CCCCC2)nc(N)c2c(N)nc(SCC(=O)O)cc12` the IC50 [1] was 0.86 µM (active) and the IC50 [2] was 11.8 µM (active).

For `CC1(C)Cc2ccccc2C2=NNC(=O)C2=N1`, the IC50 [3] was 14.1 µM (active) and the AC50 [4] was 3.62 µM (active).

For `CCc1ccc(S(=O)(=O)Nc2cc(SCC(=O)O)c(O)c3ccccc23)cc1`, the IC50 [5] was 50 µM (inactive).

In the case of `O=[N+]([O-])c1ccc(Sc2cccc[n+]2[O-])c2nonc12`, the IC50 [6] was 0.448 µM (active).

For `CCCC(=O)NC(c1ccc(C(C)C)cc1)c1ccc2cccnc2c1O` (stereo not given), the AC50 [7] was 0.938 µM (active).

For `Oc1c(Cl)cc(Cl)c(Cl)c1Cc1c(O)c(Cl)cc(Cl)c1Cl` [HEXACHLOROPHENE], the IC50 [8] was 0.003 µM (active), the IC50 [9] was 27.4 µM (active) and the IC50 [10] was 0.0312 µM (active). The IC50 [11] was 0.032 µM (active), the IC50 [12] was 0.108 µM (active) and the IC50 [13] was 17.9 µM (active). For the same compound, the IC50 [14] was 15.8 µM (active) and the IC50 [15] was 5.63 µM (active).
